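1) Cells in 96-well plates. 2) Compound, 48 h, 5 concentrations. 3) Linear interpolation between surrounding doses. 4) Unreached endpoint = highest concentration. The concentration for 50% growth inhibition is given as GI50. TGI denotes the concentration required for complete inhibition of growth.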
Experiments:
Assay in all cases: inhibition of tumour cell growth, NCI panel, 48 h
[1] = system: CCRF-CEM leukemia
[2] = system: COLO 205 colon
[3] = system: MDA-N
[4] = system: PC-3 prostate
[5] = system: SK-MEL-2 melanoma
[6] = system: SNB-75 CNS
[7] = system: U251 CNS
[8] = system: ACHN renal
[9] = system: HCT-15 colon
[10] = system: SK-MEL-28 melanoma

| SMILES | TGI [1] | TGI [2] | TGI [3] | TGI [4] | TGI [5] | TGI [6] | TGI [7] | TGI [8] | TGI [9] | TGI [10] | GI50 [1] | GI50 [2] | GI50 [4] | GI50 [5] | GI50 [7] | GI50 [8] | GI50 [9] | GI50 [10] | GI50 [6] |
| --- | --- | --- | --- | --- | --- | --- | --- | --- | --- | --- | --- | --- | --- | --- | --- | --- | --- | --- | --- |
| ClC(Cl)(Cl)C1CCOC1n1nnc2ccccc21 (stereo unspecified) | > 100 µM | > 100 µM | > 100 µM | > 100 µM | > 100 µM | 54.3 µM | > 100 µM | – | – | – | – | – | – | – | – | – | – | – | – |
| Cc1ccc(S(=O)(=O)NC(CCC(=O)NNc2ccccc2)C(=O)NNc2ccccc2)cc1 (stereo unspecified) | > 100 µM | 54.1 µM | > 100 µM | > 100 µM | 83.2 µM | > 100 µM | > 100 µM | > 100 µM | > 100 µM | – | – | – | – | – | – | – | – | – | – |
| CC(C)(C)OC(=O)NC12C3C4C1C1C2C3C41NC(=O)OC(C)(C)C (stereo unspecified) | 61.7 µM | > 100 µM | > 100 µM | > 100 µM | > 100 µM | – | > 100 µM | > 100 µM | > 100 µM | > 100 µM | – | – | – | – | – | – | – | – | – |
| CCc1cccc2c3c([nH]c12)-c1ccccc1NC(=O)C3 | > 100 µM | > 100 µM | – | – | > 100 µM | > 100 µM | > 100 µM | – | > 100 µM | > 100 µM | – | – | – | – | – | – | – | – | – |
| O=c1[nH]c(=O)n(C2CC(O)C(CO)O2)cc1Oc1ccccc1 (stereo unspecified) | > 100 µM | > 100 µM | > 100 µM | > 100 µM | – | > 100 µM | > 100 µM | > 100 µM | > 100 µM | > 100 µM | – | – | – | – | – | – | – | – | – |
| COc1cc(/C=C2\CC/C(=C\c3cc(OC)c(O)c(OC)c3)C2=O)cc(OC)c1O | 23.1 µM | 54.2 µM | > 23.4 µM | 19.7 µM | 2.02 µM | 8.06 µM | > 49.2 µM | 6.58 µM | 18.7 µM | – | – | – | – | – | – | – | – | – | – |
| O=C1NC(=O)c2ccccc2/C1=C/c1ccc2c(c1)OCO2 | > 100 µM | – | > 100 µM | – | 61.4 µM | 86.6 µM | – | 34.3 µM | 31.8 µM | – | – | – | – | – | – | – | – | – | – |
| COc1ccccc1OCC(COC(=O)Nc1ccccc1)OC(=O)Nc1ccccc1 (stereo unspecified) | > 100 µM | > 100 µM | – | – | 67.6 µM | 45.6 µM | > 100 µM | > 100 µM | > 100 µM | > 100 µM | – | – | – | – | – | – | – | – | – |
| Cc1c(CNc2ccc(C(=O)NC(CCCNC(=O)c3ccccc3C(=O)O)C(=O)O)cc2)cnc2nc(N)nc(N)c12 (stereo unspecified) | – | 4.74 µM | – | > 100 µM | – | – | > 100 µM | – | > 100 µM | – | > 100 µM | 1.72 µM | < 0.0001 µM | > 100 µM | 0.00285 µM | – | – | – | – |
| CC(C(=O)OCc1ccccc1)N(Cc1ccccc1)Cc1ccccc1 (stereo unspecified) | > 100 µM | > 100 µM | – | – | > 100 µM | > 100 µM | > 100 µM | > 100 µM | > 100 µM | > 100 µM | – | – | – | – | – | – | – | – | – |
| C(/C=N/NC1=NCCCCN1)=N\NC1=NCCCCN1 | > 100 µM | > 100 µM | > 100 µM | > 100 µM | – | > 100 µM | > 100 µM | > 100 µM | – | > 100 µM | – | – | – | – | – | – | – | – | – |
| Cc1cc(C)c2c(c1)CC1(Cc3cc(C)c(C)cc3C1=O)C2=O (stereo unspecified) | > 100 µM | > 100 µM | – | > 100 µM | > 100 µM | > 100 µM | > 100 µM | > 100 µM | > 100 µM | > 100 µM | – | – | – | – | – | – | – | – | – |
| CC1=NN(c2cccc(Cl)c2)C2(C1=Cc1ccc(O)cc1)C(Cl)C(=O)N2c1nc2ccccc2s1 (stereo unspecified) | > 100 µM | – | 64.8 µM | 51.9 µM | 45.9 µM | – | 49.2 µM | 52.7 µM | 32.1 µM | > 100 µM | – | – | – | – | – | – | – | – | – |
| N#Cc1nc2cc(Cl)ccc2nc1N1CCN(c2ccc([N+](=O)[O-])cc2)CC1 | – | > 100 µM | > 100 µM | > 100 µM | – | > 100 µM | > 100 µM | > 100 µM | > 100 µM | > 100 µM | – | – | – | – | – | – | – | – | – |
| COc1ccc(C#Cn2nnc3ccccc32)cc1 | – | > 100 µM | > 100 µM | > 100 µM | > 100 µM | – | > 100 µM | > 100 µM | > 100 µM | > 100 µM | – | – | – | – | – | – | – | – | – |
| O=C(CCN1CCOCC1)/C(=C/c1ccccc1)c1ccccc1 | – | 14.3 µM | – | – | 21.5 µM | 21.8 µM | 12.9 µM | – | 5.98 µM | 20.3 µM | – | – | – | – | – | – | – | – | – |
| CC1CC/C(=C\c2ccc(F)cc2)C2=C1C(c1ccc(F)cc1)N1C(=O)CSC1=N2 (stereo unspecified) | > 100 µM | > 100 µM | > 100 µM | > 100 µM | > 100 µM | – | > 100 µM | > 100 µM | > 100 µM | > 100 µM | – | – | – | – | – | – | – | – | – |
| C#CC(O)(c1nc2ccccc2s1)c1nc2ccccc2s1 | 79 µM | 40 µM | 57.4 µM | 64.7 µM | 35.7 µM | – | 44 µM | 83.2 µM | 60.6 µM | > 100 µM | – | – | – | – | – | – | – | – | – |
| C#CC[C@@]12CC(=O)C[C@@H]1CCC1(C2)OCCO1 (tested in a mixture with another compound) | > 100 µM | > 100 µM | – | – | > 100 µM | > 100 µM | > 100 µM | – | > 100 µM | > 100 µM | – | – | – | – | – | – | – | – | – |
| Cc1cc(S(=O)(=O)Nc2nc3ncccc3[nH]2)c(S)cc1Cl | > 100 µM | > 100 µM | > 100 µM | > 100 µM | – | > 100 µM | > 100 µM | > 100 µM | > 100 µM | > 100 µM | – | – | – | – | – | – | – | – | – |
| COC(=O)[C@H](Cc1c[nH]c2ccccc12)NP(=O)(OCCC#N)OCC1OC(n2cc(C)c(=O)[nH]c2=O)CC1N=[N+]=[N-] (stereo partly specified) | > 100 µM | > 100 µM | > 100 µM | > 100 µM | > 100 µM | > 100 µM | > 100 µM | > 100 µM | > 100 µM | – | – | – | – | – | – | – | – | – | – |
| CN(Cc1cnc2nc(N)nc(N)c2n1)c1ccc(C(=O)NC23CC4CC(CC(C4)C2)C3)cc1 | 52 µM | 24 µM | – | 19 µM | 23.6 µM | 38.9 µM | 44.3 µM | 11.5 µM | 16.6 µM | – | – | – | – | – | – | – | – | – | – |
| O=c1c2cc(C(F)(F)F)ccc2sc2c(NCCCNCCO)nc3ccccc3c12 | – | – | – | 3.24 µM | 3.75 µM | 2.87 µM | – | 2.86 µM | 2.77 µM | 3.32 µM | – | – | 1.69 µM | 1.92 µM | – | 1.51 µM | 1.32 µM | 1.87 µM | 1.48 µM |
